Results from US20230348467A1, “Heteroaryl Derivative, Preparation Method Therefor, And Use Thereof” (Zhejiang Hisun Pharmaceutical Co., Ltd., priority 2020, published 2023).

What was measured:
[1] = target: recombinant human full-length SHP2 (Homo sapiens (Human), UniProt Q06124); experiment: Allosteric inhibition of full-length SHP2 enzyme (DiFMUP fluorescence); format: biochemical; details: full-length SHP2 0.5 nM, activating peptide 0.5 uM, DiFMUP substrate
Description: The following method was used to determine the inhibition degrees of the compounds of the present invention on the activity of recombinant human full-length SHP2 in vitro. SHP2 was allosterically activated by the binding of di-tyrosyl-phosphorylated peptide to a Src homologous 2(SH2) domain of SHP2. An activation step of the latter leads to the self-inhibitory interface release of SHP2, and then activates SHP2 protein tyrosine phosphatase (PTP), which might be used for substrate recognition and reaction catalysis.
The experimental process was briefly described as follows: Test compounds were first dissolved in DMSO to prepare storage solutions. […] Then, the compounds to be tested were added in a concentration range of 0.00004-10 uM and incubated at 25° C. for 60 minutes. Then DiFMUP (Thermo, D6567) was added in the reaction and incubated at 25° C. for 30 minutes. After incubation, readings were taken using a microplate reader (BMG) with excitation and emission wavelengths of 340 nm and 450 nm, respectively.

[2] = test system: NCI-H23 cells (containing KRAS G12C mutation); experiment: Inhibition of NCI-H23 cell proliferation (CellTiter-Glo); format: cell-based; details: Homo sapiens, 120 hours culture
Experimental: (§1) The following method was used to determine the effects of the compounds of the present invention on NCI-H23 cell proliferation. NCI-H23 cells (containing KRAS G12C mutation) were purchased from Cell Resource Center of Shanghai Institutes for Biological Sciences, Chinese Academy of Sciences, and cultured in RPMI 1640 mediums containing 10% fetal bovine serum, 100 U penicillin, 100 μg/mL streptomycin and 1 mM Sodium Pyruvate. The activities of the cells were determined by CellTiter-Glo® Luminescent Cell Viability Assay kit (Promega, article number: G7573).
(§2) The experimental method was operated according to the steps in the kit instruction, and was briefly described as follows: test compounds were first dissolved in DMSO to prepare storage solutions of 10 mM, and then diluted in mediums, prepared as test samples. The final concentrations of the test compounds were 10,000 nM to 1.52 nM. The cells in logarithmic phase were inoculated in a 96-well cell culture plate with 1,000 cells per well, after cultured overnight in 5% CO2 incubator at 37° C., the test compounds were added to the incubator to continue the culture for 120 hours. After the culture, 50 μL of CellTiter-Glo detection solution was added to each well, shaken for 5 minutes, and then stood for 10 minutes. Then, a Luminescence mode was used to read the luminescence values of each well of the samples on a microplate reader. Compared with the numerical value of a control group (0.3% DMSO), the percentage inhibition rates of the compounds at each concentration were calculated, and the IC50 values of the compounds inhibiting cell proliferation were obtained by performing nonlinear regression analysis with logarithmic values of the compound concentration—inhibition rate by GraphPad Prism 5 software, which was shown in Table 2.

[3] = test system: NCI-H358 cells (containing KRAS G12C mutation); experiment: Inhibition of NCI-H358 cell proliferation (CellTiter-Glo); format: cell-based; details: Homo sapiens, NCI-H358, 120 h, read-out: IC50(nM)/NCI-H358
Experimental: as §1, with “NCI-H358” for “NCI-H23”
as §2, with “of the” for “of a”, “Table 3.” for “Table 2.”

[4] = Pharmacokinetic test in ICR mice, intragastric (Test Example 4); format: in vivo; details: PO
Description: ICR mice were used as test animals, and LC/MS/MS methods was used to determine the drug concentrations at different moments in plasma of mice administered by intragastric injection with the compound 5 and the compound 6 of the present invention, and to study the pharmacokinetic characteristics of the compounds of the present invention in mice. An appropriate amount of drug was weighed, added with an appropriate amount of sodium carboxymethylcellulose (CMC-Na, containing 0.5% Tween 80), vortexed, and ultrasonically prepared into 1 mg/kg suspension. The ICR mice in the intragastric group of each compound to be tested (9 mice in each group) were fasted overnight and then administered by intragastric injection (PO, […], and administration volume of 10 mL/kg), and ate 4 hours after administration. About 0.2 mL of blood was collected via jugular vein before administration and 0.083 hour, 0.25 hour, 0.5 hour, 1 hour, 2 hours, 4 hours, 8 hours and 24 hours after administration, and heparin sodium was used for anticoagulation. The collected blood samples were placed on ice, and plasma was separated by centrifugation (centrifugation condition: 1,500 g, 10 minutes). The collected plasma samples were stored at −40° C. to −20° C. before analysis. LC-MS/MS was used to determine the contents of the compounds to be tested in mouse plasma after intragastric administration.

| IC50 [1] [nM] | SMILES | further results |
| --- | --- | --- |
| 8 | CC1(N)CCN(c2nc(C(N)=O)c3c(-c4cccc(Br)c4Cl)n[nH]c3n2)CC1 [Example 12, 6-(4-amino-4-methylpiperidin-1-yl)-3-(3-bromo-2-chlorophenyl)-1H-pyrazolo[3,4-d]pyrimidine-4-carboxamide] | – |
| 24 | NC(=O)c1nc(N2CCC(N)CC2)nc2[nH]nc(-c3cccc(Cl)c3Cl)c12 [Example 15, 6-(4-Aminopiperidin-1-yl)-3-(2,3-dichlorophenyl)-1H-pyrazolo[3,4-d]pyrimidine-4-carboxamide] | – |
| 2 | NC1(c2ccccc2Cl)CCN(c2nc(C(=O)O)c3c(-c4cccc(Cl)c4Cl)n[nH]c3n2)CC1 [Example 23, 6-(4-amino-4-(2-chlorophenyl)piperidin-1-yl)-3-(2,3-dichlorophenyl)-1H-pyrazolo[3,4-d]pyrimidine-4-carboxylic acid] | – |
| 5 | NC1(c2ccc(Cl)cc2)CCN(c2nc(C(=O)O)c3c(-c4cccc(Cl)c4Cl)n[nH]c3n2)CC1 [Example 24, 6-(4-amino-4-(4-chlorophenyl)piperidin-1-yl)-3-(2,3-dichlorophenyl)-1H-pyrazolo[3,4-d]pyrimidine-4-carboxylic acid] | – |
| 5 | NC1(c2cccc(Cl)c2)CCN(c2nc(C(=O)O)c3c(-c4cccc(Cl)c4Cl)n[nH]c3n2)CC1 [Example 25, 6-(4-amino-4-(3-chlorophenyl)piperidin-1-yl)-3-(2,3-dichlorophenyl)-1H-pyrazolo[3,4-d]pyrimidine-4-carboxylic acid] | – |
| 3 | Cc1cccc(-c2n[nH]c3nc(N4CCC(N)(c5ccccc5)CC4)nc(C(N)=O)c23)c1Cl [Example 29, 6-(4-amino-4-phenylpiperidin-1-yl)-3-(2-chloro-3-methylphenyl)-1H-pyrazolo[3,4-d]pyrimidine-4-carboxamide] | – |
| 3 | NC1(c2ccccc2)CCN(c2nc(-c3nnn[nH]3)c3c(-c4cccc(Cl)c4Cl)n[nH]c3n2)CC1 [Example 30, 1-(3-(2,3-dichlorophenyl)-4-(1H-tetrazol-5-yl)-1H-pyrazolo[3,4-d]pyrimidin-6-yl)-4-phenylpiperidin-4-amine] | – |
| 10 | COc1nccc(-c2n[nH]c3nc(N4CCC(N)(c5ccccc5F)CC4)nc(C(N)=O)c23)c1Cl [Example 32, 6-(4-amino-4-(2-fluorophenyl)piperidin-1-yl)-3-(3-chloro-2-methoxypyridin-4-yl)-1H-pyrazolo[3,4-d]pyrimidine-4-carboxamide] | – |
| 27 | NC(=O)c1nc(N2CCC(N)(c3ccccn3)CC2)nc2[nH]nc(-c3cccc(Cl)c3Cl)c12 [Example 38, 6-(4-amino-4-(pyridin-2-yl)piperidin-1-yl)-3-(2,3-dichlorophenyl)-1H-pyrazolo[3,4-d]pyrimidine-4-carboxamide] | – |
| 3 | COc1ccc(C2(N)CCN(c3nc(C(N)=O)c4c(-c5cccc(Cl)c5Cl)n[nH]c4n3)CC2)cc1 [Example 46, 6-(4-amino-4-(4-methoxyphenyl)piperidin-1-yl)-3-(2,3-dichlorophenyl)-1H-pyrazolo[3,4-d]pyrimidine-4-carboxamide] | – |
| 11 | NC(=O)c1nc(N2CCC(N)(c3ccccc3)CC2)nc2[nH]cc(-c3cccc(Cl)c3Cl)c12 [Example 53, 2-(4-amino-4-phenylpiperidin-1-yl)-5-(2,3-dichlorophenyl)-7H-pyrrolo[2,3-d]pyrimidine-4-carboxamide] | – |

More lines, now with the values behind:

| SMILES | IC50 [1] [nM] | further results |
| --- | --- | --- |
| CC1(N)CCN(c2nc(C(N)=O)c3c(-c4cccc(Cl)c4Cl)n[nH]c3n2)CC1 [Example 2, 6-(4-amino-4-methylpiperidin-1-yl)-3-(2,3-dichlorophenyl)-1H-pyrazolo[3,4-d]pyrimidine-4-carboxamide] | 29 | – |
| NC(=O)c1nc(N2CCC3(CC2)Cc2ccccc2[C@H]3N)nc2[nH]nc(-c3cccc(Cl)c3Cl)c12 [Example 5, (S)-6-(1-amino-1,3-dihydrospiro[indene-2,4′-piperidin]-1′-yl)-3-(2,3-dichlorophenyl)-1H-pyrazolo[3,4-d]pyrimidine-4-carboxamide] | 1 | IC50 [2]: 143 nM; IC50 [3]: 27 nM; Pharmacokinetic properties (conclusion in words) [4]: good pharmacokinetic properties; AUC(0-inf) ([4]; mouse, 10 mg/kg per table (method text says 1 mg/kg), plasma, read-out: Area under curve AUC0-∞): 31300 ng·h/mL; Cmax ([4]; mouse, 10 mg/kg per table (method text says 1 mg/kg), plasma, read-out: Blood concentration Cmax): 2110 ng/mL |
| NC(=O)c1nc(N2[C@@H]3CC[C@H]2C[C@@H](N)C3)nc2[nH]nc(-c3cccc(Cl)c3Cl)c12 [Example 7, 6-((endo)-3-amino-8-azabicyclo[3.2.1]octan-8-yl)-3-(2,3-dichlorophenyl)-1H-pyrazolo[3,4-d]pyrimidine-4-carboxamide] | 14 | – |
| NC(=O)c1nc(N2[C@@H]3CC[C@H]2C[C@H](N)C3)nc2[nH]nc(-c3cccc(Cl)c3Cl)c12 [Example 8, 6-((exo)-3-amino-8-azabicyclo[3.2.1]octan-8-yl)-3-(2,3-dichlorophenyl)-1H-pyrazolo[3,4-d]pyrimidine-4-carboxamide] | 5 | – |
| N[C@@H]1c2ccccc2CC12CCN(c1nc(C(=O)O)c3c(-c4cccc(Cl)c4Cl)n[nH]c3n1)CC2 [Example 9, (S)-6-(1-amino-1,3-dihydrospiro[indene-2,4′-piperidin]-1′-yl)-3-(2,3-dichlorophenyl)-1H-pyrazolo[3,4-d]pyrimidine-4-carboxylic acid] | 1 | IC50 [2]: 13 nM |
| NC(=O)c1nc(N2CCC(N)(c3c(F)cccc3F)CC2)nc2[nH]nc(-c3cccc(Cl)c3Cl)c12 [Example 11, 6-(4-amino-4-(2,6-difluorophenyl)piperidin-1-yl)-3-(2,3-dichlorophenyl)-1H-pyrazolo[3,4-d]pyrimidine-4-carboxamide] | 17 | – |
| NC(=O)c1nc(N2CCC(N)(CO)CC2)nc2[nH]nc(-c3cccc(Cl)c3Cl)c12 [Example 13, 6-(4-Amino-4-(hydroxymethyl)piperidin-1-yl)-3-(2,3-dichlorophenyl)-1H-pyrazolo[3,4-d]pyrimidine-4-carboxamide] | 10 | – |
| Cc1nc(N2CCC3(CC2)CO[C@@H](C)[C@H]3N)c(CO)nc1-c1cccc(Cl)c1Cl [RMC-4550, reference compound] | – | IC50 [2]: 240 nM; IC50 [3]: 80 nM |
